Experimental findings from patent US9328122B2, “7-substituted Hanfangichin B derivative, and preparation method and use thereof” (HANGZHOU BENSHENG PHARMACEUTICAL CO., LTD., priority 2012, dated 2016) are described below.

The structures appear in SMILES notation. ≈ marks a conversion by molar mass, not a printed value.

The first assay deals with K562/ADR (K562adr, drug-resistant chronic myeloid leukemia) cells. In words: MTT cell growth inhibition, leukemia cells. The assay is classed as cell-based. Conditions: Homo sapiens; K562/ADR, 72 h, MTT; read-out: IC50. The essentials: (§1)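 Growth inhibition is assessed by MTT after leukemia cells, plated at 6000 per well in RPMI-1640 containing 10% fetal bovine serum, are exposed for 72 hours to graded compound concentrations added the day after plating.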
As usually defined, the IC50 is the concentration that inhibits the measured activity by half. Turning to `COc1ccc2cc1Oc1ccc(cc1)C[C@H]1c3cc(c(OC)cc3CCN1C)Oc1c(OCC(O)CN3CCSCC3)c(OC)cc3c1[C@H](C2)N(C)CC3` (stereo partly drawn) [BS-FC-417], the IC50 turned out to be 0.19 µg/mL (≈ 0.247 µM).

Still in this assay, the particulars now being: Homo sapiens; K562/ADR, 72 h, MTT; read-out: IC90.
Broadly, the IC90 is the concentration needed for an effect of 90%. As for `COc1ccc2cc1Oc1ccc(cc1)C[C@H]1c3cc(c(OC)cc3CCN1C)Oc1c(OCC(O)CN3CCSCC3)c(OC)cc3c1[C@H](C2)N(C)CC3` (stereo partly drawn) [BS-FC-417], the IC90 stood at 2.15 µg/mL (≈ 2.8 µM).

The test system of a further assay is NB4 (acute promyelocytic leukemia) cells. In words: MTT cell growth inhibition, leukemia cells. The assay is classed as cell-based. Conditions: Homo sapiens; NB4, 72 h, MTT; read-out: IC50. Put shortly:
as §1
On to `COc1ccc2cc1Oc1ccc(cc1)C[C@H]1c3cc(c(OC)cc3CCN1C)Oc1c(OCC(O)CN3CCSCC3)c(OC)cc3c1[C@H](C2)N(C)CC3` (stereo partly drawn) [BS-FC-417], for which the IC50 was determined as 0.99 µg/mL (≈ 1.29 µM).

Still in this assay, the particulars now being: Homo sapiens; NB4, 72 h, MTT; read-out: IC90.
As for `COc1ccc2cc1Oc1ccc(cc1)C[C@H]1c3cc(c(OC)cc3CCN1C)Oc1c(OCC(O)CN3CCSCC3)c(OC)cc3c1[C@H](C2)N(C)CC3` (stereo partly drawn) [BS-FC-417], the IC90 stood at 2.86 µg/mL (≈ 3.72 µM).

A further assay concerns H9 (acute lymphoblastic leukemia) cells. In words: MTT cell growth inhibition, leukemia cells. Conditions: Homo sapiens; H9, 72 h, MTT; read-out: IC50. The format is cell-based, human. Put shortly:
as §1
For `COc1ccc2cc1Oc1ccc(cc1)C[C@H]1c3cc(c(OC)cc3CCN1C)Oc1c(OCC(O)CN3CCSCC3)c(OC)cc3c1[C@H](C2)N(C)CC3` (stereo partly drawn) [BS-FC-417], the IC50 was found to be 1.3 µg/mL (≈ 1.69 µM).

Still in this assay, the particulars now being: Homo sapiens; H9, 72 h, MTT; read-out: IC90.
Take `COc1ccc2cc1Oc1ccc(cc1)C[C@H]1c3cc(c(OC)cc3CCN1C)Oc1c(OCC(O)CN3CCSCC3)c(OC)cc3c1[C@H](C2)N(C)CC3` (stereo partly drawn) [BS-FC-417]: the IC90 turned out to be 3.6 µg/mL (≈ 4.69 µM).

The subject of the next assay is Jurkat (acute lymphoblastic leukemia) cells. In words: MTT cell growth inhibition, leukemia cells. The assay is classed as cell-based, human. To be noted: Homo sapiens; Jurkat, 72 h, MTT; read-out: IC50. The essentials: as §1
On to `COc1ccc2cc1Oc1ccc(cc1)C[C@H]1c3cc(c(OC)cc3CCN1C)Oc1c(OCC(O)CN3CCSCC3)c(OC)cc3c1[C@H](C2)N(C)CC3` (stereo partly drawn) [BS-FC-417], for which the IC50 amounted to 1.24 µg/mL (≈ 1.61 µM).

Staying with this assay, now noted: Homo sapiens; Jurkat, 72 h, MTT; read-out: IC90.
With `COc1ccc2cc1Oc1ccc(cc1)C[C@H]1c3cc(c(OC)cc3CCN1C)Oc1c(OCC(O)CN3CCSCC3)c(OC)cc3c1[C@H](C2)N(C)CC3` (stereo partly drawn) [BS-FC-417], the IC90 was found to be 5.47 µg/mL (≈ 7.12 µM).

The test system of a further assay is Kasumi-1 (acute myeloid leukemia M2 type) cells. In words: MTT cell growth inhibition, leukemia cells. The assay is classed as cell-based, human. Conditions: Homo sapiens; Kasumi-1, 72 h, MTT; read-out: IC50. Put shortly: as §1
In the case of `COc1ccc2cc1Oc1ccc(cc1)C[C@H]1c3cc(c(OC)cc3CCN1C)Oc1c(OCC(O)CN3CCSCC3)c(OC)cc3c1[C@H](C2)N(C)CC3` (stereo partly drawn) [BS-FC-417], the IC50 worked out at 1.45 µg/mL (≈ 1.89 µM).

Staying with this assay, now noted: Homo sapiens; Kasumi-1, 72 h, MTT; read-out: IC90.
On to `COc1ccc2cc1Oc1ccc(cc1)C[C@H]1c3cc(c(OC)cc3CCN1C)Oc1c(OCC(O)CN3CCSCC3)c(OC)cc3c1[C@H](C2)N(C)CC3` (stereo partly drawn) [BS-FC-417], for which the IC90 was determined as 3.63 µg/mL (≈ 4.73 µM).

The subject of a further assay is RPMI 8226 (multiple myeloma) cells. Kind of assay: MTT cell growth inhibition, multiple myeloma cells. The format is cell-based, human. To be noted: Homo sapiens; RPMI 8226, 72 h, MTT; read-out: IC50. Put shortly:
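RPMI 8226 myeloma cells, 6000 per well in RPMI-1640 with 10% FBS, were dosed with fangchinoline derivatives at several concentrations the day after seeding. Incubation ran 72 h at 37° C in 5% CO2, then viable cells were measured by MTT.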
In the case of `COc1ccc2cc1Oc1ccc(cc1)C[C@H]1c3cc(c(OC)cc3CCN1C)Oc1c(OCC(O)CN3CCSCC3)c(OC)cc3c1[C@H](C2)N(C)CC3` (stereo partly drawn) [BS-FC-417], the IC50 is 0.02 µg/mL (≈ 0.026 µM).

The same assay, now with this note: Homo sapiens; RPMI 8226, 72 h, MTT; read-out: IC90.
For the compound `COc1ccc2cc1Oc1ccc(cc1)C[C@H]1c3cc(c(OC)cc3CCN1C)Oc1c(OCC(O)CN3CCSCC3)c(OC)cc3c1[C@H](C2)N(C)CC3` (stereo partly drawn) [BS-FC-417], the IC90 came out at 0.5 µg/mL (≈ 0.651 µM).

The assay is the same for the next values; noted with them: relative to fangchinoline, Table 2.
Take `COc1ccc2cc1Oc1ccc(cc1)C[C@H]1c3cc(c(OC)cc3CCN1C)Oc1c(OCC(O)CN3CCSCC3)c(OC)cc3c1[C@H](C2)N(C)CC3` (stereo partly drawn) [BS-FC-417]: the “anti-RPMI8226 activity increase over fangchinoline” value was 2 fold.

Another assay has as its system CNE (nasopharyngeal carcinoma) cells. In words: MTT cell growth inhibition, solid tumor cells. The format is cell-based, human. Conditions: Homo sapiens; CNE, 72 h, MTT; read-out: IC50. The essentials: (§2)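 Exposure lasted 72 h, following 24 h growth of 6000 cells/well in DMEM high glucose containing 10% FBS at 37 °C in 5% CO2; endpoint was MTT-based viable cell concentration across tested compound concentrations.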
On to `COc1ccc2cc1Oc1ccc(cc1)C[C@H]1c3cc(c(OC)cc3CCN1C)Oc1c(OCC(O)CN3CCSCC3)c(OC)cc3c1[C@H](C2)N(C)CC3` (stereo partly drawn) [BS-FC-417], for which the IC50 was 1.66 µg/mL (≈ 2.16 µM).

Still in this assay, the particulars now being: Homo sapiens; CNE, 72 h, MTT; read-out: IC90.
As to `COc1ccc2cc1Oc1ccc(cc1)C[C@H]1c3cc(c(OC)cc3CCN1C)Oc1c(OCC(O)CN3CCSCC3)c(OC)cc3c1[C@H](C2)N(C)CC3` (stereo partly drawn) [BS-FC-417], the IC90 was 5.24 µg/mL (≈ 6.82 µM).

A further assay deals with CaEs-17 (esophageal cancer) cells. Kind of assay: MTT cell growth inhibition, solid tumor cells. The assay is classed as cell-based, human. To be noted: Homo sapiens, CaEs17; CaEs-17, 72 h, MTT; read-out: IC50. Put shortly: as §2
Take `COc1ccc2cc1Oc1ccc(cc1)C[C@H]1c3cc(c(OC)cc3CCN1C)Oc1c(OCC(O)CN3CCSCC3)c(OC)cc3c1[C@H](C2)N(C)CC3` (stereo partly drawn) [BS-FC-417]: the half-inhibitory concentration (IC50) came out at 1.82 µg/mL (≈ 2.37 µM).

The assay is the same for the next values; noted with them: Homo sapiens, CaEs17; CaEs-17, 72 h, MTT; read-out: IC90.
For the compound `COc1ccc2cc1Oc1ccc(cc1)C[C@H]1c3cc(c(OC)cc3CCN1C)Oc1c(OCC(O)CN3CCSCC3)c(OC)cc3c1[C@H](C2)N(C)CC3` (stereo partly drawn) [BS-FC-417], the IC90 came out at 7.67 µg/mL (≈ 9.99 µM).

Another assay has as its system PANC-1 (pancreatic cancer) cells. In words: MTT cell growth inhibition, solid tumor cells. The assay is classed as cell-based, human. Conditions: Homo sapiens; PANC-1, 72 h, MTT; read-out: IC50. Put shortly: as §2
In the case of `COc1ccc2cc1Oc1ccc(cc1)C[C@H]1c3cc(c(OC)cc3CCN1C)Oc1c(OCC(O)CN3CCSCC3)c(OC)cc3c1[C@H](C2)N(C)CC3` (stereo partly drawn) [BS-FC-417], the IC50 stood at 5.55 µg/mL (≈ 7.23 µM).
